Data set [1] has as its system SH-SY5Y cells. Put plainly: Real-time qPCR of mitochondrial rRNA and humanin transcripts. In kind it is cell-based, human. Particulars: IMT1 co-treated with HN for 24 h, dose-dependent. The protocol: For real-time qPCR, total RNA was extracted using TRIzol reagent (Thermo Fisher Scientific). cDNA was synthesized using a cDNA synthesis kit (Bioneer Corporation), according to the manufacturer's protocol. The mRNA levels were analyzed in a LightCycler 96 (Roche, Basel, Switzerland) using SYBR Green I master mix and SensiFAST™ SYBR® No-ROX Kit (Bioline, Paris, France). B2M (beta-2-microglobulin) gene expression was used to normalize gene expression data. The primer sequences used in this experiment are in Table S2.
A general note: Real-time PCR tracks product formation cycle by cycle.

A short description of data set [2]: Brain delivery after intranasal FITC-HN. In kind it is in vivo, mouse. The protocol:
For intranasal HN treatment, the synthetic HN peptide was delivered according to a procedure reported by Capsoni et al. The synthetic HN peptide was diluted in ddH2O to a concentration of 0.1 and 5 mg/kg for mice (total volume of 40 μL) at 37 ℃ with mild stirring. The mice were held firmly in one hand in a supine position with their head at 90°. Synthetic HN was administered in the form of 5-μL drops over 20 min in alternating nostrils every 3 min. After administration, the heads of the mice were held in the same position to prevent loss of the applied solution from the nares.
To stain the mouse brain tissue samples, transcardial perfusion was performed using PBS and 4% paraformaldehyde in PBS. The brain and trigeminal ganglia were removed, post-fixed using 4% paraformaldehyde in PBS, and stored in a 30% sucrose solution at 4 ℃ until they sank. Coronal sections were prepared (thickness: 10 µm) using a sliding microtome. After blocking with 5% BSA, the samples were incubated with the appropriate primary antibody as mentioned above. […] To enhance immune signals in immunohistochemistry, a Vectastain Elite ABC Standard Kit (Vector Laboratories) was used, as per the manufacturer's instructions. The stained sections were scanned using a Pannormic MIDI scanner (3[…], Budapest, Hungary) at the Neuroscience Translational Research Solution Center. Unbiased stereological analyses were performed as previously described. […] Fluorescent images were captured at the Neuroscience Translational Research Solution Center (Busan, South Korea) using an LSM 700 confocal microscope (Zeiss, Jena, Germany). Mitochondrial network morphology was further assessed using the FIJI/ImageJ software as described previously.
A commercially available ELISA kit (MyBioSource, San Diego, CA, USA) was used to measure plasma and brain HN levels. To measure the protein levels of HN, brain homogenates (100 μg protein/well) and 100 μL of plasma samples were loaded onto competitive ELISA plates according to the manufacturer's instructions. The absorbance was measured using a microplate reader (Molecular Devices, Sunnyvale, CA, USA) at a wavelength of 450 nm.

In data set [3] the test system is SH-SY5Y cells. Put plainly: FITC-HN immunofluorescence in cells. In kind it is cell-based, human. As to the method:
For HN treatment, HN was synthesized as per Fmoc-based SPPS at GL Biochem (Shanghai, China). The lyophilized synthesized HN peptide or HN peptide conjugated with fluorescein isothiocyanate (FITC-HN) was dissolved in Dimethyl sulfoxide (DMSO) and incubated at 37 ℃ with mild stirring (100 rpm) for 1 h to prepare a 10 mM stock solution. The stock solutions were kept at -20 ℃ until use.
For staining, the cells were seeded on PDL-coated glass slides and treated as indicated above. The samples were fixed using methanol and permeabilized using 0.1% Triton X-100 in PBS. […] Fluorescent images were captured at the Neuroscience Translational Research Solution Center (Busan, South Korea) using an LSM 700 confocal microscope (Zeiss, Jena, Germany). The mitochondrial network morphology was assessed using the FIJI/ImageJ software as described previously.

Data set [4] has as its system differentiated PC12 cells. In words: Pathway inhibitors on HN effects in MPP+-challenged differentiated PC12 cells. In kind it is cell-based, rat. The settings on record: for neuroprotective effect of HN against MPP+ neurotoxicity (MTT viability): inhibitor 2 h before HN 10 μM, then MPP+ 1 mM 24 h, MK2206 1 μM, wortmannin 1 μM, U0126 10 μM. As to the method:
For neuronal differentiation of PC12 cells, the cells were grown in DMEM containing 1.5% horse serum, 1.5% FBS, 1% P/S, and 100 ng/mL nerve growth factor (NGF, Thermo Fisher Scientific) every 2 days. PC12 cells were differentiated for 7 days and used for subsequent experiments.
Mouse brain tissue samples and cells were homogenized in radioimmunoprecipitation assay (RIPA) buffer (Cell Signaling, Danvers, MA, USA) in the presence of a protease and phosphatase inhibitor cocktail (Thermo Fisher Scientific). The samples were sonicated on ice, and the supernatant was collected after centrifugation at 4°C at 10,000 g for 5 min. The protein samples were loaded and separated using Tris-glycine SDS-PAGE. To detect the HN peptide, the proteins were separated into three layers of tricine SDS-PAGE, as previously described. The separated proteins were transferred to nitrocellulose membranes (GenDEPOT, Barker, TX, USA). The membranes were blocked for 0.5 h, followed by incubation with appropriate primary antibodies overnight at 4°C. The primary antibodies used were as follows: anti-tyrosine hydroxylase (Cat # P40101, Pel-Freez Biologicals), anti-HN (Cat # RA19000, Neuromics), anti-β-actin (Cat # GTX109639, GeneTex, Irvine, CA, USA), and anti-GAPDH (Cat # AM4300, Thermo Fisher Scientific). After washing, the membranes were incubated with horseradish peroxidase-labeled secondary antibodies (Cell Signaling Technology) and visualized using enhanced chemiluminescence reagents (DoGen, Seoul, South Korea). The results were analyzed using the ImageJ densitometry system. In order to detect circulating humanin in human plasma samples, proteins were extracted by trichloroacetic acid (TCA) precipitation. Loading of an equal amount of protein was confirmed by Coomassie staining of plasma samples which were depleted of albumin by Minute™ Albumin Depletion Reagent (Invent Biotechnologies, Plymouth, MN, USA).
Following treatment with the aforementioned reagents, the cells were washed and treated with 3-(4,5-dimethylthiazol-2-yl)-2,5-diphenyl-tetrazolium bromide (MTT, Thermo Fisher Scientific). Briefly, the cells were seeded in a 96-well plate at a density of 5 × 10^3 cells/well. After 24 h, a neurotoxin 1-methyl-4-phenylpyridinium (MPP^+) (Sigma-Aldrich) was applied to induce toxicity in neuronal cells. Next, the cells were incubated with MTT for 4 h, and formazan crystals were solubilized using DMSO. Absorbance was measured using a multi-plate reader at a wavelength of 570 nm, and the viability of the cells was recorded as a percentage of the control.

The test system of data set [5] is transgenic mouse model of AD. The settings on record: without altering Aβ production; cited from earlier work. From the text: Humanin is the first peptide representing a novel group of naturally occurring bioactive peptides encoded by the mitochondrial genome, termed MDPs. Since its discovery in 2001 [12], humanin has been proposed as a potential protective peptide for neurological disorders, cardiovascular diseases, and metabolic dysfunction. The central role of humanin in the protective response has been extensively studied in AD [13]. Maftei et al., using affinity mass spectrometry, identified that humanin can directly bind to amyloid β (Aβ), which subsequently disrupts the oligomerization of Aβ [57]. Further ...

The mark [6] stands for this setting: wortmannin 1 μM pre-treatment, HN 10 μM, MPP+ 1 mM.

Entries after “also recorded” stand apart in the source; their conditions may differ. Bounds are passed on as bounds.

`Cc1ccccc1-c1cc(=O)oc2cc(OC(C)C(=O)N(C)C)ccc12` (stereo not shown) [IMT1, reference compound]: the “humanin transcripts induced by HN peptide” value in the data set on SH-SY5Y cells [1] is given as “markedly attenuated humanin transcripts”.

Consider “fluorescein isothiocyanate-conjugated humanin [FITC-HN]”, for which the “FITC-HN distribution in trigeminal nerve endoneurium” value in data set [2] (cross-sections of trigeminal nerves after intranasal administration, transgenic PD mice) is on record as “diffuse to punctate in the perineural space of the endoneurium”. Further, the “FITC-HN signal in trigeminal nerve perineurium region” value in data set [2] (cross-sections of trigeminal nerves, compared with endoneurium) is recorded as “more prominent FITC-HN signal”. Besides, in data set [2] (human α-Syn transgenic PD mice, ELISA of brain regions (CB, OB, ST, HIP, SN, CTX)), the “duration of widespread brain distribution after intranasal administration” value is “up to 1 h”. The “time after intranasal injection at which FITC-HN is detectable in midbrain (VTA, aqueduct)” value in data set [2] (human α-Syn-overexpressing transgenic PD mice, fluorescence imaging) is given as at most 30 min. For the same molecule, in data set [2] (within 30 minutes after intranasal treatment, GFAP staining), the “FITC-HN localisation in brain parenchyma” value is “found in microvascular endothelial cells surrounded by astrocytic endfeet”. Besides, in the data set on SH-SY5Y cells [3] (24 h FITC-HN treatment, untreated cells show weak signal), the “intracellular humanin signal (antibody staining)” value is “strong signal of intracellular humanin”. In addition, the “intracellular FITC fluorescence signal” value is “no detectable fluorescent signal” in the data set on SH-SY5Y cells [3] (24 h after FITC-HN treatment, suggests degradation of the FITC-HN peptide) and “strong intracellular fluorescence signal” with SH-SY5Y cells [3] (within 30 min of FITC-HN treatment, confocal immunofluorescence).

With `N#CC(=C(/N)Sc1ccccc1N)/C(C#N)=C(/N)Sc1ccccc1N` [U0126], the “neuroprotective effect of HN against MPP+ neurotoxicity (MTT viability)” value (“neuroprotective effect of HN” for short) in data set [4] is reported as “did not alter cell viability”.

As for “S14G-HN: a highly potent human derivative (MAPRGFSCLLLLTGEIDLPVKRRA; Humanin; UniProt Q8IVG9 1-24, looked up, variant S14G)”, the “total amyloid plaque burden in cerebellum, hippocampus and cortex” value in data set [5] is “significantly reduced the total amyloid plaque burden”.

As to `COC[C@H]1OC(=O)c2coc3c2[C@@]1(C)C1=C(C3=O)[C@@H]2CCC(=O)[C@@]2(C)C[C@H]1OC(C)=O` [wortmannin], the “neuroprotective effect of HN” value in data set [4] was “abolished the neuroprotective effect of HN”. Moreover, in data set [4] (wortmannin 1 μM pre-treatment 1 h, HN 10 μM, 24 h, MPP+-exposed cells), the “induction of intracellular humanin by HN treatment, western blot” value is “significantly inhibited; also recorded: blocked the induction of HN expression”. In addition, in data set [4] (setting [6]), the HN-enhanced mitochondrial mass result was “significantly blocked the impact of HN on enhancing mitochondrial mass” and the “HN-promoted mitochondrial biogenesis, western blot” value is “significantly blocked”.

`NC1(c2ccc(-c3nc4ccn5c(=O)[nH]nc5c4cc3-c3ccccc3)cc2)CCC1` [MK-2206]: the “neuroprotective effect of HN” value in data set [4] was “abolished the neuroprotective effect of HN”.

The values are drawn from paper PMC10283052, “Intranasal delivery of mitochondrial protein humanin rescues cell death and promotes mitochondrial function in Parkinson's disease” (Theranostics, 2023).
